# Laboratory results taken from patent US9567342B2, “Certain protein kinase inhibitors” (SHANGHAI FOCHON PHARMACEUTICAL CO., LTD., priority 2012, dated 2017).
# pIC50: −log10 of the molar value.
# Test system: SU-DHL-1 cells
# Assay: Inhibition activity of cell proliferation (CCK-8 assay)
# Assay type: cell-based
# Settings: Homo sapiens, 72 h exposure
# Protocol: SU-DHL-1 cells were seeded in 96-well tissue culture plates. On the next day, cells were exposed to various concentrations of compounds and further cultured for 72 h. Cell proliferation was then determined using Cell Counting Kit-8 [(CCK-8), Dojindo]assay. Briefly, add 10 μL of the CCK-8 solution to each well of the plate. Incubate the plate for 1-4 hours in the incubator. Measure the absorbance at 450 nm using a multi-well spectrophotometer (SpectraMAX 190, Molecular Devices). The inhibition rate (%) was calculated using the following equation: [1−(A450 Compound/A450 Control)]×100%. IC50 values were calculated according to inhibition curve by four-parameter fit.
row,SMILES,pIC50
1,"Cc1cc(Nc2ncc(Cl)c(Nc3ccccc3S(=O)(=O)C(C)C)n2)c2c(c1C1CCN(CC(=O)N(C)C)CC1)C[C@H](C)O2 [Example 27, (S)-2-(4-(7-((5-chloro-4-((2-(isopropylsulfonyl)phenyl)amino)pyrimidin-2-yl)amino)-2,5-dimethyl-2,3-dihydrobenzofuran-4-yl)piperidin-1-yl)-N,N-dimethylacetamide]",7.43
2,"Cc1cc(Nc2ncc(Cl)c(Nc3ccccc3S(=O)(=O)C(C)C)n2)c2c(c1C1CCN(C(=O)[C@H](C)N)CC1)C[C@H](C)O2 [Example 21, (S)-2-amino-1-(4-((S)-7-((5-chloro-4-((2-(isopropylsulfonyl)phenyl)amino)pyrimidin-2-yl)amino)-2,5-dimethyl-2,3-dihydrobenzofuran-4-yl)piperidin-1-yl)propan-1-one]",7.16
3,Cc1cc(Nc2ncc(Cl)c(Nc3ccccc3S(=O)(=O)C(C)C)n2)c2c(c1C1CCNCC1)CCO2 [Example 13],> 8.39
4,"Cc1cc(Nc2ncc(Cl)c(Nc3ccccc3S(=O)(=O)C(C)C)n2)c2c(c1C1CCN(CC(=O)N(C)C)CC1)C[C@@H](C)O2 [Example 28, (R)-2-(4-(7-((5-chloro-4-((2-(isopropylsulfonyl)phenyl)amino)pyrimidin-2-yl)amino)-2,5-dimethyl-2,3-dihydrobenzofuran-4-yl)piperidin-1-yl)-N,N-dimethylacetamide]",7.33
5,"Cc1cc(Nc2ncc(Cl)c(Nc3ccccc3S(=O)(=O)C(C)C)n2)c2c(c1C1CCN(C[C@H](C)O)CC1)C[C@@H](C)O2 [Example 24, (S)-1-(4-((R)-7-((5-chloro-4-((2-(isopropylsulfonyl)phenyl)amino)pyrimidin-2-yl)amino)-2,5-dimethyl-2,3-dihydrobenzofuran-4-yl)piperidin-1-yl)propan-2-ol]",8.08
6,Cc1cc(Nc2nc(Nc3ccccc3S(=O)(=O)C(C)C)c3c(C)n[nH]c3n2)c2c(c1C1CCNCC1)CCO2 [Example 1],7.59
7,"Cc1cc(Nc2ncc(Cl)c(Nc3ccccc3S(=O)(=O)C(C)C)n2)c2c(c1C1CCN(CC(N)=O)CC1)C[C@H](C)O2 [Example 25, (S)-2-(4-(7-((5-chloro-4-((2-(isopropylsulfonyl)phenyl)amino)pyrimidin-2-yl)amino)-2,5-dimethyl-2,3-dihydrobenzofuran-4-yl)piperidin-1-yl)acetamide]",7.44
8,Cc1cc(Nc2ncc(Cl)c(Nc3ccccc3S(=O)(=O)C(C)C)n2)c2c(c1C1CCN(C)CC1)C[C@H](C)O2 [Example 12],8.40
9,"Cc1cc(Nc2ncc(Cl)c(Nc3ccccc3S(=O)(=O)C(C)C)n2)c2c(c1C1CCN(CC(N)=O)CC1)C[C@@H](C)O2 [Example 26, (R)-2-(4-(7-((5-chloro-4-((2-(isopropylsulfonyl)phenyl)amino)pyrimidin-2-yl)amino)-2,5-dimethyl-2,3-dihydrobenzofuran-4-yl)piperidin-1-yl)acetamide]",7.86
10,"Cc1cc(Nc2ncc(Cl)c(Nc3ccccc3S(=O)(=O)C(C)C)n2)c2c(c1C1CCN(C[C@@H](C)O)CC1)C[C@@H](C)O2 [Example 23, (R)-1-(4-((R)-7-((5-chloro-4-((2-(isopropylsulfonyl)phenyl)amino)pyrimidin-2-yl)amino)-2,5-dimethyl-2,3-dihydrobenzofuran-4-yl)piperidin-1-yl)propan-2-ol]",7.91
11,"Cc1cc(Nc2ncc(Cl)c(Nc3ccccc3S(=O)(=O)C(C)C)n2)c2c(c1C1CCNCC1)C[C@H](C)O2 [Example 11, (S)-5-chloro-N-2-(2,5-dimethyl-4-(piperidin-4-yl)-2,3-dihydrobenzofuran-7-yl)-N-4-(2-(isopropylsulfonyl)phenyl)pyrimidine-2,4-diamine]",> 8.39

# Now from value to compound:
row,pIC50,SMILES
1,6.97,"Cc1cc(Nc2ncc(Cl)c(Nc3ccccc3S(=O)(=O)C(C)C)n2)c2c(c1C1CCN(C(N)=O)CC1)C[C@H](C)O2 [Example 43, (S)-4-(7-((5-chloro-4-((2-(isopropylsulfonyl)phenyl)amino)pyrimidin-2-yl)amino)-2,5-dimethyl-2,3-dihydrobenzofuran-4-yl)piperidine-1-carboxamide]"
2,7.45,"CO[C@H](C)C(=O)N1CCC(c2c(C)cc(Nc3ncc(Cl)c(Nc4ccccc4S(=O)(=O)C(C)C)n3)c3c2C[C@H](C)O3)CC1 [Example 55, (R)-1-(4-((S)-7-((5-chloro-4-((2-(isopropylsulfonyl)phenyl)amino)pyrimidin-2-yl)amino)-2,5-dimethyl-2,3-dihydrobenzofuran-4-yl)piperidin-1-yl)-2-methoxypropan-1-one]"
3,6.85,"CO[C@@H](C)C(=O)N1CCC(c2c(C)cc(Nc3ncc(Cl)c(Nc4ccccc4S(=O)(=O)C(C)C)n3)c3c2C[C@H](C)O3)CC1 [Example 58, (S)-1-(4-((S)-7-((5-chloro-4-((2-(isopropylsulfonyl)phenyl)amino)pyrimidin-2-yl)amino)-2,5-dimethyl-2,3-dihydrobenzofuran-4-yl)piperidin-1-yl)-2-methoxypropan-1-one]"
4,7.13,"COCCN1CCC(c2c(C)cc(Nc3ncc(Cl)c(Nc4ccccc4S(=O)(=O)C(C)C)n3)c3c2C[C@H](C)O3)CC1 [Example 31, (S)-5-chloro-N-4-(2-(isopropylsulfonyl)phenyl)-N-2-(4-(1-(2-methoxyethyl)piperidin-4-yl)-2,5-dimethyl-2,3-dihydrobenzofuran-7-yl)pyrimidine-2,4-diamine]"
5,7.90,"Cc1cc(Nc2ncc(Cl)c(Nc3ccccc3S(=O)(=O)C(C)C)n2)c2c(c1C1CCN(C(=O)CO)CC1)C[C@@H](C)O2 [Example 37, (R)-1-(4-(7-((5-chloro-4-((2-(isopropylsulfonyl)phenyl)amino)pyrimidin-2-yl)amino)-2,5-dimethyl-2,3-dihydrobenzofuran-4-yl)piperidin-1-yl)-2-hydroxyethanone]"
6,7.99,"Cc1cc(Nc2ncc(Cl)c(Nc3ccccc3S(=O)(=O)C(C)C)n2)c2c(c1C1CCN(C(=O)[C@@H](C)O)CC1)C[C@@H](C)O2 [Example 39, (R)-1-(4-((R)-7-((5-chloro-4-((2-(isopropylsulfonyl)phenyl)amino)pyrimidin-2-yl)amino)-2,5-dimethyl-2,3-dihydrobenzofuran-4-yl)piperidin-1-yl)-2-hydroxypropan-1-one]"
7,7.71,"COCCN1CCC(c2c(C)cc(Nc3ncc(Cl)c(Nc4ccccc4S(=O)(=O)C(C)C)n3)c3c2C[C@@H](C)O3)CC1 [Example 32, (R)-5-chloro-N-4-(2-(isopropylsulfonyl)phenyl)-N-2-(4-(1-(2-methoxyethyl)piperidin-4-yl)-2,5-dimethyl-2,3-dihydrobenzofuran-7-yl)pyrimidine-2,4-diamine]"
8,6.58,"CNCC(=O)N1CCC(c2c(C)cc(Nc3ncc(Cl)c(Nc4ccccc4S(=O)(=O)C(C)C)n3)c3c2C[C@H](C)O3)CC1 [Example 44, (S)-1-(4-(7-((5-chloro-4-((2-(isopropylsulfonyl)phenyl)amino)pyrimidin-2-yl)amino)-2,5-dimethyl-2,3-dihydrobenzofuran-4-yl)piperidin-1-yl)-2-(methylamino)ethanone]"
9,6.93,"Cc1cc(Nc2ncc(Cl)c(Nc3ccccc3S(=O)(=O)C(C)C)n2)c2c(c1C(=O)N1CCN(C)CC1)C[C@H](C)O2 [Example 47, (S)-(7-((5-chloro-4-((2-(isopropylsulfonyl)phenyl)amino)pyrimidin-2-yl)amino)-2,5-dimethyl-2,3-dihydrobenzofuran-4-yl)(4-methylpiperazin-1-yl)methanone]"
